# Reference: patent US20130131174A1, “INJECTABLE PHARMACEUTICAL FORMULATION OF MELPHALAN” (ERIOCHEM, priority 2010, published 2013)
# Several values for one entry are separate records, joined by “and”; a condition that tells them apart may be missing. Equal entries are not always repeated.
# Assays:
# [1] = cited from earlier work
# [2] = Solubility of melphalan in pharmaceutical organic solvents; type: physicochemical; settings: for Solubility in DMSO: hydrochlorate prepared by addition of three moles of hydrochloric acid at 37%
# Description: To investigate the possibility of elaborating malphalan lyophilizates from pharmaceutical organic solvents, it was determined that base melphalan as well as its hydrochlorate are not soluble in terbutylic alcohol. Instead, even though base malphalan is not soluble in DMSO, its hydrochlorate is soluble up to close to 10% p/v, prepared by the addition of three moles of hydrochloric acid as a concentrated acid at 37%.
# Base melphalan is soluble in glacial acetic acid, preferably free of acetic anhydride, in up to close to 10% p/v; likewise as melphalan hydrochlorate, mixtures of acetic acid and aqueous solution of hydrochloric acid at 37% p/p to dissolve base melphalan may also be used, or else hydrogen chloride solution in glacial acetic acid.
# [3] = pH of lyophilized melphalan after reconstitution, dilution in normal saline solution and neutralization with trisodium citrate; type: physicochemical; settings: 5 mg/ml of melphalan hydrochlorate with 2.5 molecules of hydrogen chloride per melphalan mol
# Description: (§1) A vial containing the solid composition of lyophilized melphalan was reconstituted with 3.2 ml of normal saline solution, producing a melphalan solution at 5.40 mg/ml of pH 1.80. An aliquot of 0.8 ml was taken and added with another of 4.2 ml of normal saline solution, producing 0.86 mg/ml of pH 2.33. It was neutralized with 0.20 ml of a solution of 100 mg/ml of trisodium citrate dihydrate, producing a final pH 5.44.
# as §1, with “6.84” for “5.40”, “2.20.” for “1.80.”, “1.09” for “0.86”, “2.20.” for “2.33.”, “of 5.59.” for “5.44.”
# [4] = Stability at 25° C. of melphalan solution at 10 mg/ml in glacial acetic acid, purity by HPLC; type: physicochemical
# Description: To study stability at 25° C. of a melphalan solution at 10 mg/ml in glacial acetic acid in the absence of hydrochloric acid, 830 mg base melphalan Lot 20-01-2010 were used and the results of the following table were obtained. This solution is not comprised in the present invention, it is only introduced with the aim of comparing this option without hydrochloric acid presenting higher concentration of impurities than the composition of lyophilized melphalan on the invention.
# [5] = Purity by HPLC of melphalan lyophilizates vs. their API (degradation on lyophilization)
# Description: Purity determinations of melphalan in its different compositions were analyzed by HPLC applying the method Pharmaeuropa, Vol 21, No. 3, July 2009, pages 425-28, for the following examples:
# (§2) Simultaneously, the melphalan solution was filtered and measured in doses to 10 mg/ml in glacial acetic acid with 3 moles of hydrochloric acid from hydrochloric acid at 37% w/we, which used base melphalan Lot 20-01-2010, in 5 ml vials of the tube flask type, 20 mm mouth, containing 2 ml solution, and it was lyophilized in a Virtis Advantage Lyophilizer, freezing at −50° C. for 5 hours, starting vacuum at the same temperature, then bringing the shelf to −20° C., then to 0° C. and finally drying at 5° C., with a final vacuum of 25 microbars.
# as §2, with “acid,” for “acid with 3 moles of hydrochloric acid from hydrochloric acid at 37% w/we,”, “25°” for “5°”
# [6] = API before dissolution, listed as API
# [7] = API or lyophilizate, listed as API
# [8] = API or lyophilizate, listed as API-Mel 143-09
smiles,measurement,setting,value
CC(O)CO (stereo not shown) [propylene glycol],Half plasma life,[1]; individuals with normal renal function,5 h
same,Excreted by kidneys,[1]; rest metabolized by the liver,12-45%
N[C@@H](Cc1ccc(N(CCCl)CCCl)cc1)C(=O)O [melphalan hydrochlorate],Solubility in DMSO,[2]; listed as its hydrochlorate,~10 % p/v
same,pH of an aqueous solution,[3],approximately 1.9
"N[C@@H](Cc1ccc(N(CCCl)CCCl)cc1)C(=O)O [Melphalan, p-(bis-2-chloroethyl)-amino-L-phenylalanine]",Impurity C,[4]; API before dissolution,0.02 % of area
same,Impurity D,[4]; API before dissolution,0.09 % of area
same,Impurity F,[4]; API before dissolution,0.05 % of area
same,Impurity G,[4]; API before dissolution,2.05 % of area
same,Impurity I,[4]; API before dissolution,0.03 % of area
same,Impurity J,[4]; API before dissolution,0.11 % of area
same,Melphalan Purity,[4]; API before dissolution,97.45 % of area
same,Total of Impurities,[4]; API before dissolution,2.55 % of area
same,Max. Imp. Disposab,[4]; [6],0.02 (TRR 0.81) % of area and 0.04 % of area
same,Other Imp. Disposab,[4]; [6],0.04 (TRR 1.58) % of area and 0.02 % of area
same,Stability in solution of 10 mg/ml in acetic acid by HPLC,[4]; hours in solution at ambient temperature / 25° C.,perfectly stable
same,Solubility in terbutylic alcohol,[2],not soluble
same,Solubility in DMSO,[2]; listed as base malphalan,not soluble
same,Solubility in glacial acetic acid,[2]; preferably free of acetic anhydride,~10 % p/v
same,Impurity C,[5]; API or lyophilizate,<0.05 % w/w
same,Impurity F,[5]; API or lyophilizate,<0.05 % w/w
same,Impurity I,[5]; API or lyophilizate,<0.05 % w/w
same,Impurity D,[5]; [7],0.05% w/w and <0.05 % w/w
same,Impurity G,[5]; [7],1.04% w/w and 0.97% w/w
same,Impurity J,[5]; [7],0.05% w/w and <0.05 % w/w
same,Máx. Imp. Dispos,[5]; [7],0.05% w/w and 0.07% w/w
same,Total of Impurities,[5]; [7],1.19% w/w and 1.04% w/w
same,Impurity D,[5]; [8],0.1 % w/w
same,Impurity G,[5]; [8],0.9 % w/w
same,Máx. Imp. Dispos,[5]; [8],0.1 % w/w
same,Total of Impurities,[5]; [8],1.2 % w/w
same,Degradation of the API on non-aqueous lyophilization,[5]; from acetic acid with three moles of hydrochloric acid per mol,lower than 0.2 % in area
